The source of these data is patent US4387105A, “Methods of treating atherosclerosis with dialkylureas and dialkylthioureas” (priority 1982, dated 1983).

Molecules are shown by their SMILES.

The assay deals with T1, fatty acyl CoA:cholesterol acyl transferase (ACAT) (Rattus norvegicus, UniProt O70536).
T1 construct: The supernatant, containing the microsomal fraction, served as the source of the cholesterol-esterifying enzyme; from tissue; host or cells: rat adrenals (1000 x g supernatant containing the microsomal fraction)
T1 sequence (O70536 1-545): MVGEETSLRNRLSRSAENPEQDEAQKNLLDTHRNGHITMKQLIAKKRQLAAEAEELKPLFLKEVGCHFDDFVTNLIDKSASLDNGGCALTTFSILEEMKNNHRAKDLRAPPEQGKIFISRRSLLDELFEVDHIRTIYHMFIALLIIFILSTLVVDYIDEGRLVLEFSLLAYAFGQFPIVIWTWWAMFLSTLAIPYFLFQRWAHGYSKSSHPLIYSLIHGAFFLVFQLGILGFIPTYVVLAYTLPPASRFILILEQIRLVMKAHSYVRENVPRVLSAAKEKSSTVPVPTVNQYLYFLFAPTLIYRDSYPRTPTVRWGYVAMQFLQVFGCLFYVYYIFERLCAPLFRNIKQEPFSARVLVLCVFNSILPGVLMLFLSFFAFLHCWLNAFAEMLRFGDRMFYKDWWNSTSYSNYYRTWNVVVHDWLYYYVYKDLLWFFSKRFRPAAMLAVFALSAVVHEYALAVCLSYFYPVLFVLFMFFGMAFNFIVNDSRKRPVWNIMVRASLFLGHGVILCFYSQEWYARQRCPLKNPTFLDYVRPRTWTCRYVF
Put plainly: Inhibition of ACAT in rat adrenal microsomal supernatant (14C-oleoyl CoA, cholesteryl ester counted). Type of assay: biochemical. On the set-up: dose or concentration left out as unconfirmed. As to conditions: vs control without compound. Here is the method: The compounds of the present invention were assayed for two types of biological activity related to their potential use as antiatherosclerotic agents. Compounds were tested in vitro for the ability to inhibit the enzyme fatty acyl CoA:cholesterol acyl transferase (ACAT) and in vivo for serum hypolipidemic activity as measured by their ability to inhibit lipid absorption in rats. The compounds were tested for their ability to inhibit ACAT according to the following procedure:
Rat adrenals were homogenized in 0.2 M monobasic potassium phosphate buffer, pH 7.4, and centrifuged at 1000 times gravity for 15 minutes at 5° C. The supernatant, containing the microsomal fraction, served as the source of the cholesterol-esterifying enzyme, fatty acyl CoA:cholesterol acyl transferase (ACAT). A mixture comprising 50 parts of adrenal supernatant, 10 parts of albumin (BSA) (50 mg./ml.), 3 parts of test compound (final concentration […].) and 500 parts of buffer was preincubated at 37° C. for 10 minutes. After treatment with 20 parts of oleoyl CoA(^14 C-[…]) the mixture was incubated at 37° C. for 10 minutes. A control mixture, omitting the test compound, was prepared and treated in the same manner. The lipids from the incubation mixture were extracted into an organic solvent and separated by thin-layer chromatography. The cholesteryl ester fraction was counted in a scintillation counter. This procedure is a modification of that described by Hashimoto, et al., Life Scie., 12 (Part II), 1-12 (1973).
One may read the % Inhibition as the drop in the measured response relative to a control, in per cent. As to `CCCCN(CCCC)C(=O)Nc1ccc(Cl)cc1Cl` [1,1-Di-(n-butyl)-3-(2,4-dichlorophenyl)urea], the “% Inhibition” value was found to be 70.0%. Take `CCCCN(CCCC)C(=O)Nc1ccc(C)c(NC(=O)N(CCCC)CCCC)c1` [1,1-di-(n-butyl)-3-[(3,3-dibutyl)urea-4-methylphenyl]urea]: the “% Inhibition” value is 94.5%. Regarding `Cc1ccc(NC(=O)N(CCCCC2CCCCC2)CCCCC2CCCCC2)c(C)c1` [1,1-Di-(4-cyclohexyl-n-butyl)-3-(2,4-dimethylphenyl)urea], the “% Inhibition” value was found to be 86.3%. As for `CCCCCCCCCCCCN(CCCCCCCCCCCC)C(=O)Nc1ccc(C)cc1C` [1,1-Di-(n-dodecyl)-3-(2,4-dimethylphenyl)urea], the figure is 26.3%. The result for `CCCCN(CCCC)C(=O)Nc1c(C)cccc1C` [1,1-Di-(n-butyl)-3-(2,6-dimethylphenyl)urea] reads 85.3%; that for `CCCCN(CCCC)C(=O)Nc1ccccc1Cl` [1,1-di-(n-butyl)-3-(2-chlorophenyl)urea, 1,1-Di-(n-butyl)-3-(2-chlorophenyl)urea], 71.0%; that for `CCCCN(CCCC)C(=O)Nc1c(C)cc(C)cc1C` [1,1-Di-(n-butyl)-3-(2,4,6-trimethylphenyl)urea], 73.4%. As for `CCC(C)N(C(=O)Nc1ccc(C)cc1C)C(C)CC` (stereo not shown) [1,1-Di-(sec-butyl)-3-(2,4-dimethylphenyl)urea], the “% Inhibition” value is listed as 78.1%. For `CCCCCCCCCN(CCCCCCCCC)C(=O)Nc1ccc(C)cc1C` [1,1-Di-(n-nonyl)-3-(2,4-dimethylphenyl)urea], the “% Inhibition” value worked out at 90.0%.

Turning to `Cc1ccc(NC(=O)N(C2CCCCC2)C2CCCCC2)c(C)c1` [1,1-dicyclohexyl-3-(2,4-dimethylphenyl)urea], the “% Inhibition” value is given as 94.3%. In the case of `CCCCN(CCCC)C(=O)Nc1ccc(I)cc1` [1,1-di-(n-butyl)-3-(4-iodophenyl)urea, 1,1-Di-(n-butyl)-3-(4-iodophenyl)urea], the “% Inhibition” value came to 83.1%.

Consider `CCCCN(CCCC)C(=O)Nc1ccc(C)c(Cl)c1` [1,1-Di-(n-butyl)-3-(3-chloro-4-methylphenyl)urea], for which the “% Inhibition” value came to 91.2%. With `Cc1ccc(NC(=O)N(CC(C)C)CC(C)C)cc1NC(=O)N(CC(C)C)CC(C)C` [1,1-di-(isobutyl)-3-[(3,3-diisobutyl)urea-4-methylphenyl]urea], the “% Inhibition” value came out at 94.7%. Turning to `Cc1ccc(C)c(NC(=O)N(CC(C)C)CC(C)C)c1` [1,1-di-(isobutyl)-3-(2,5-dimethylphenyl)urea], the “% Inhibition” value came to 74.3%. Turning to `CCCCN(CCCC)C(=O)Nc1ccc(Cl)cc1C` [1,1-di-(n-butyl)-3-(4-chloro-2-methylphenyl)urea], the “% Inhibition” value is on record as 88.0%. In the case of `CCCCN(CCCC)C(=O)Nc1cccc(C)c1` [1,1-di-(n-butyl)-3-(3-methylphenyl)urea, 1,1-Di-(n-butyl)-3-(3-methylphenyl)urea], the “% Inhibition” value stood at 78.4%.

For the compound `CCCCN(CCCC)C(=O)Nc1ccc(F)c(Cl)c1` [1,1-Di-(n-butyl)-3-(3-chloro-4-fluorophenyl)urea], the “% Inhibition” value is 90.9%.

For `CCCCN(CCCC)C(=O)Nc1cc(Cl)cc(Cl)c1Cl` [1,1-Di-(n-butyl)-3-(2,3,5-trichlorophenyl)urea], the “% Inhibition” value is reported as 61.6%.

Consider `CCCCN(CCCC)C(=O)Nc1cccc(C)c1C` [1,1-Di-(n-butyl)-3-(2,3-dimethylphenyl)urea], for which the “% Inhibition” value amounted to 87.6%. As for `CCCCN(CCCC)C(=O)Nc1ccc(C(C)C)cc1` [1,1-Di-(n-butyl)-3-(4-isopropylphenyl)urea], the “% Inhibition” value is 76.4%. In the case of `CCCCN(CCCC)C(=O)Nc1ccc(C)cc1` [1,1-di-(n-butyl)-3-(4-methylphenyl)urea, 1,1-Di-(n-butyl)-3-(4-methylphenyl)urea], the “% Inhibition” value is listed as 79.9%. As for `CCCCN(CCCC)C(=O)Nc1cc(Cl)ccc1C` [1,1-di-(n-butyl)-3-(5-chloro-2-methylphenyl)urea], the figure is 75.3%.
